Measurements from US8815503B2, “Compositions and methods for immunostimulatory RNA oligonucleotides” (Rheinische Friedrich-Wilhelms-Universitat Bonn, priority 2005, dated 2014).

System: PBMC
Assay: 193 ssRNA 4mer-motif library screen: IL-12 (IL-12p40) production in PBMC of six donors, poly-L-Arg complexation, ELISA at 44 hours, IL-12 index and adjusted IL-12 index
Format: cell-based, human
Parameters: key to Adjusted IL-12 index Mean: IL-12 index (ratio to 9.2sense) minus donor mean, averaged over 6 donors
Details: for Adjusted IL-12 index Mean: 193 ssRNA oligonucleotide library, data from six individual donors summarized, ascending order
Description: FIG. 9: PBMC of six different healthy donors were isolated and stimulated with poly-L-arginine complexed ssRNA oligonucleotides in duplicates. 44 hours after stimulation IL-12p40 production was assessed in supernatant via ELISA. For all tested ssRNA oligonucleotides (table 3), the mean values of the measured duplicates were normalized to the positive control ssRNA oligonucleotide 9.2sense (5′-AGCUUAACCUGUCCUUCAA (SEQ ID NO: 194)) by dividing the mean value of tested oligonucleotide by the mean value of 9.2sense (=IL-12 index of a given oligonucleotide). Next, all individual IL-12 indices were adjusted to the mean value of all IL-12 indices by subtracting the mean value of all IL-12 indices from the individual IL-12 index of a given oligonucleotide (=adjusted IL-12 index). Data from six individual donors were summarized and were assorted in ascending order displaying the corresponding SEM (for a complete listing including numerical data see table 4). FIG. 9A discloses SEQ ID NOS 460-509, respectively, in order of appearance. FIG. 9B discloses SEQ ID NOS 510-559, respectively, in order of appearance. FIG. 9C discloses SEQ ID NOS 560-609, respectively, in order of appearance. FIG. 9D discloses SEQ ID NOS 610-652, respectively, in order of appearance.
All 193 ssRNA oligonucleotides were tested on PBMC of six individual healthy donors using poly-L-Arg for complexation. At 44 hours after stimulation with RNA oligonucleotides, supernatants were collected and IL-12 production was measured by ELISA. Prior to statistical analysis the raw data were processed as follows: for each cell culture plate the mean IL-12 value of the experimental duplicates for each tested ssRNA oligonucleotide were normalized to the ssRNA oligonucleotide RNA9.2sense (5′-AGCUUAACCUGUCCUUCAA-3′ (SEQ ID NO: 194)). This standard RNA oligonucleotide was included as a positive control on all cell culture plates. Normalization was performed by calculating the ratio of IL-12 induced by the tested oligonucleotide and IL-12 induced by the standard oligonucleotide RNA9.2sense. Thus, for each tested oligonucleotide in an individual donor a mean ratio of IL-12 induction was obtained. In the following, this mean of the ratios is referred to as IL-12 index (one value of IL-12 index per donor). […] The corresponding IL-12 index of oligonucleotide ANP175 for donor 3 was calculated to be 1.90 (=1725 pg/ml divided by 908 pg/ml).
Next, the means of all IL-12 indices for every individual donor were calculated. Then the adjusted IL-12 indices were calculated as IL-12 index minus the mean of all IL-12 indices of one individual donor. […] The adjusted IL-12 index of ANP175 was calculated: 1.90 minus 0.44=1.46. The adjusted IL-12 indices from all six donors were summarized by calculating the means and the corresponding standard error of mean. The data are depicted in ascending order (FIG. 9A, B, C, D). The adjusted IL-12 indices of the top thirty ssRNA oligonucleotides of all six donors were compared using a two-tailed Student's t-test (FIG. 10). For most combinations tested, a significant difference was observed when the interval between the analyzed pairs was at least eight or nine places in the assortment.

| Sequence | Adjusted IL-12 index Mean | further results |
| --- | --- | --- |
| AAAAAAACACGAAAAAAAA (RNA, backbone not given here) [ANP-Oligo 054] | −0.65 | – |
| AAAAAAAGCUCAAAAAAAA (RNA, backbone not given here) [ANP-Oligo 119] | −0.48 | – |
| AAAAAAAGUGUAAAAAAAA (RNA, backbone not given here) [ANP-Oligo 142] | 1.23 | – |
| AAAAAAACCGGAAAAAAAA (RNA, backbone not given here) [ANP-Oligo 069] | −0.64 | – |
| AAAAAAAUUAUAAAAAAAA (RNA, backbone not given here) [ANP-Oligo 184] | 0.56 | – |
| AAAAAAAAGUCAAAAAAAA (RNA, backbone not given here) [ANP-Oligo 035] | −0.22 | – |
| AAAAAAAAGGCAAAAAAAA (RNA, backbone not given here) [ANP-Oligo 032] | −0.62 | – |
| AAAAAAAGGGGAAAAAAAA (RNA, backbone not given here) [ANP-Oligo 129] | −0.51 | – |
| AAAAAAACACCAAAAAAAA (RNA, backbone not given here) [ANP-Oligo 053] | −0.67 | – |
| AAAAAAAGAUUAAAAAAAA (RNA, backbone not given here) [ANP-Oligo 109] | 0.22 | – |
| AAAAAAAUAUGAAAAAAAA (RNA, backbone not given here) [ANP-Oligo 156] | 0.27 | – |
| AAAAAAAUUUUAAAAAAAA (RNA, backbone not given here) [ANP-Oligo 193] | 0.62 | – |
| AAAAAAAAUGAAAAAAAAA (RNA, backbone not given here) [ANP-Oligo 012] | −0.23 | – |
| AAAAAAAACACAAAAAAAA (RNA, backbone not given here) [ANP-Oligo 014] | −0.64 | – |
| AAAAAAAGCCCAAAAAAAA (RNA, backbone not given here) [ANP-Oligo 113] | −0.54 | – |
| AAAAAAACGUGAAAAAAAA (RNA, backbone not given here) [ANP-Oligo 084] | −0.2 | – |
| AAAAAAAUAACAAAAAAAA (RNA, backbone not given here) [ANP-Oligo 146] | −0.16 | – |
| AAAAAAAGUUGAAAAAAAA (RNA, backbone not given here) [ANP-Oligo 144] | 4.39 | – |
| AAAAAAACCUGAAAAAAAA (RNA, backbone not given here) [ANP-Oligo 072] | −0.51 | – |

| Sequence | Adjusted IL-12 index Mean | further results |
| --- | --- | --- |
| AAAAAAAAGCCAAAAAAAA (RNA, backbone not given here) [ANP-Oligo 029] | −0.66 | – |
| AAAAAAAAGUAAAAAAAAA (RNA, backbone not given here) [ANP-Oligo 010] | −0.16 | – |
| AAAAAAAGUGGAAAAAAAA (RNA, backbone not given here) [ANP-Oligo 141] | 0.5 | – |
| AAAAAAAAGAGAAAAAAAA (RNA, backbone not given here) [ANP-Oligo 027] | −0.62 | – |
| AAAAAAACGGUAAAAAAAA (RNA, backbone not given here) [ANP-Oligo 082] | 0.29 | – |
| AAAAAAAAUGUAAAAAAAA (RNA, backbone not given here) [ANP-Oligo 046] | 0.97 | – |
| AAAAAAAUUGUAAAAAAAA (RNA, backbone not given here) [ANP-Oligo 190] | 1.6 | adjusted IL-12 index (summarized from all six donors): 1.6 |
| AAAAAAACUUGAAAAAAAA (RNA, backbone not given here) [ANP-Oligo 096] | −0.14 | – |
| AAAAAAACAAUAAAAAAAA (RNA, backbone not given here) [ANP-Oligo 052] | −0.37 | – |
| AAAAAAAAUGGAAAAAAAA (RNA, backbone not given here) [ANP-Oligo 045] | −0.29 | – |
| AAAAAAACAGGAAAAAAAA (RNA, backbone not given here) [ANP-Oligo 057] | −0.6 | – |
| AAAAAAAAUCGAAAAAAAA (RNA, backbone not given here) [ANP-Oligo 042] | −0.64 | – |
| AAAAAAACCUUAAAAAAAA (RNA, backbone not given here) [ANP-Oligo 073] | −0.28 | – |
| AAAAAAAUGUCAAAAAAAA (RNA, backbone not given here) [ANP-Oligo 179] | 0.9 | – |
| AAAAAAAGACCAAAAAAAA (RNA, backbone not given here) [ANP-Oligo 101] | −0.6 | – |
| AAAAAAAGCAGAAAAAAAA (RNA, backbone not given here) [ANP-Oligo 111] | −0.32 | – |
| AAAAAAACCCGAAAAAAAA (RNA, backbone not given here) [ANP-Oligo 066] | −0.62 | – |
| AAAAAAAACCUAAAAAAAA (RNA, backbone not given here) [ANP-Oligo 019] | −0.51 | – |
| AAAAAAAAUUCAAAAAAAA (RNA, backbone not given here) [ANP-Oligo 047] | −0.45 | – |

| Sequence | Adjusted IL-12 index Mean | further results |
| --- | --- | --- |
| AAAAAAAAUGCAAAAAAAA (RNA, backbone not given here) [ANP-Oligo 044] | 0.2 | – |
| AAAAAAAACGGAAAAAAAA (RNA, backbone not given here) [ANP-Oligo 021] | −0.63 | – |
| AAAAAAAAGGAAAAAAAAA (RNA, backbone not given here) [ANP-Oligo 009] | −0.66 | – |
| AAAAAAACAAGAAAAAAAA (RNA, backbone not given here) [ANP-Oligo 051] | −0.66 | – |
| AAAAAAAUGCCAAAAAAAA (RNA, backbone not given here) [ANP-Oligo 173] | 1.22 | – |
| AAAAAAAACCGAAAAAAAA (RNA, backbone not given here) [ANP-Oligo 018] | −0.68 | – |
| AAAAAAAUGCUAAAAAAAA (chemistry not given here) [ANP-Oligo 175] | 1.85 | adjusted IL-12 index (donor 3, IL-12 index minus mean of all IL-12 indices of the donor): 1.46; IL-12 in supernatant, mean of the two raw values of the duplicates (donor 3, poly-L-Arg complexed, 44 hours): 1725 pg/mL; IL-12 index (donor 3, ratio to RNA9.2sense): 1.90 |
| AAAAAAAUCAGAAAAAAAA (RNA, backbone not given here) [ANP-Oligo 159] | −0.28 | – |
| AAAAAAAAGUUAAAAAAAA (RNA, backbone not given here) [ANP-Oligo 037] | 0.21 | – |
| AAAAAAAUCUCAAAAAAAA (RNA, backbone not given here) [ANP-Oligo 167] | 0.37 | – |
| AAAAAAAUCGGAAAAAAAA (RNA, backbone not given here) [ANP-Oligo 165] | −0.26 | – |
| AAAAAAAACGAAAAAAAAA (RNA, backbone not given here) [ANP-Oligo 006] | −0.63 | – |
| AAAAAAAGCACAAAAAAAA (RNA, backbone not given here) [ANP-Oligo 110] | −0.58 | – |
| AAAAAAAACGUAAAAAAAA (RNA, backbone not given here) [ANP-Oligo 022] | 0.02 | – |
| AAAAAAAAUAAAAAAAAAA (RNA, backbone not given here) [ANP-Oligo 004] | −0.4 | – |
| AAAAAAAUUGCAAAAAAAA (RNA, backbone not given here) [ANP-Oligo 188] | 1.62 | – |
| AAAAAAACCAGAAAAAAAA (RNA, backbone not given here) [ANP-Oligo 063] | −0.57 | – |
| AAAAAAAGAGUAAAAAAAA (RNA, backbone not given here) [ANP-Oligo 106] | 0.21 | – |
| AAAAAAACGAGAAAAAAAA (RNA, backbone not given here) [ANP-Oligo 075] | −0.65 | – |
